Columns and labels:
[1] = Moisture sensitivity test: isothiocyanate suspended in aqueous phosphate buffer, level measured by supercritical fluid chromatography; assay type: physicochemical; settings: white mustard essential oil suspended in aqueous phosphate buffer, pH about 3.6, about 20-23° C.
Protocol: As used herein, the term “moisture-sensitive” means that the isothiocyanate compound degrades in the presence of water. This degradation proceeds via a hydrolysis reaction, thereby leading to a reduction in level of the active isothiocyanate antimicrobial agent with time of storage in the presence of water. The method for determining moisture sensitivity is set forth in the Test Method section below. […]
These solutions are analyzed by supercritical fluid chromatography using the method described by Buskov, S. et al., “Supercritical fluid chromatography as a method of analysis for the determination of 4-hydroxybenzylglucosinolate degradation products,” Journal of Biochemical and Biophysical Methods, Vol. 43, pp 157-174 (2000) with the following modifications. […] The eluate is detected at 226 and 252 nm. […]
Moisture-sensitive isothiocyanate compounds are identified by suspending the isothiocyanate containing material in an aqueous phosphate buffer (pH of about 3.6) at room temperature. […] The extraction procedure is repeated after 24 hours and the level of residual isothiocyanate compound is measured by supercritical fluid chromatography. […]

Zygosaccharomyces bailii = assay: Ketchup spoilage challenge, plate counts of inoculated yeast; assay type: cell-based; settings: 22° C.; for regrowth of Z. bailii up to 336 hours: controls regrew around 96-108 hours
Protocol: (§1) Ketchup is an acid food with a pH of 3.5-3.8 that can be cold filled at 100±20° F. in PET bottles. The product is vulnerable during filling operation at the filler, susceptible for recontamination by adventitious spoilage microorganisms such as lactic acid bacteria (LAB) and acid and preservative tolerant yeasts (APRY).
(§2) All natural tomato ketchup products were made, a first sample with sodium (ANK) and a second sample with reduced sodium (ANK-RS). Each sample was split, and to each about 150 ppm and 300 ppm 4-hydroxybenzyl isothiocyanate was added. The samples were further split (for a total of eight samples) and inoculated as follows. Microorganisms were inoculated into four samples with a cocktail consisting of four separate lactic acid spoilage bacteria (250 CFU/gm) such as Lactobacillus fructivorans, L. fermentum, L. plantar and L. hilgardii. The four remaining samples were inoculated with Zygosaccharomyces bailii—(150-200 CFU/gm) previously isolated from a ketchup spoilage incident.
(§3) A summary of the samples is as follows: • 1: ANK—150 ppm 4HBITC—inoculated with four lactic acid bacteria • 2: ANK—150 ppm 4HBITC—inoculated with Z. bailii • 3: ANK—300 ppm 4HBITC—inoculated with four lactic acid bacteria • 4: ANK—300 ppm 4HBITC—inoculated with Z. bailii • 5: ANK-RS—150 ppm 4HBITC—inoculated with four lactic acid bacteria • 6: ANK-RS—150 ppm 4HBITC—inoculated with Z. bailii • 7: ANK-RS—300 ppm 4HBITC—inoculated with four lactic acid bacteria • 8: ANK-RS—300 ppm 4HBITC—inoculated with Z. bailii
The inoculated ketchup samples were stored at 22° C. […] The lactic acid bacteria and yeasts counts were performed as described in FDA BAM manual. The plate counts were then used to identify the degree of microbial kill or stasis in the inoculated product. […] At 150 ppm, the declining trend was gradual taking 336 hours to non-detectable level for both ANK and ANK-RS. Un-inoculated controls grew to level of 1000-1500 CFU/gm. In the Z. bailii inoculated samples, counts were reduced to non-detectable level at 96 hours, both with and without 4-hydroxybenzyl isothiocyanate. […]

[2] = system: four lactic acid spoilage bacteria (Lactobacillus fructivorans, L. fermentum, L. plantar and L. hilgardii); assay: Ketchup spoilage challenge, plate counts of inoculated lactic acid bacteria; assay type: cell-based; settings: 250 CFU/gm inoculum, stored at 22° C.
Protocol: as §1, §2, §3
The inoculated ketchup samples were stored at 22° C. […] The lactic acid bacteria and yeasts counts were performed as described in FDA BAM manual. The plate counts were then used to identify the degree of microbial kill or stasis in the inoculated product. […] At 150 ppm, the declining trend was gradual taking 336 hours to non-detectable level for both ANK and ANK-RS. Un-inoculated controls grew to level of 1000-1500 CFU/gm. In the Z. bailii inoculated samples, counts were reduced to non-detectable level at 96 hours, both with and without 4-hydroxybenzyl isothiocyanate. However, there was no regrowth in the samples with 4-hydroxybenzyl isothiocyanate up to 336 hours (150 and 300 ppm). Regrowth was noticed around 96-108 hours ending at 1×10^6 CFU/gm in control samples without 4-hydroxybenzyl isothiocyanate.

For `Oc1ccc(CN=C=S)cc1` [4-hydroxybenzyl isothiocyanate], the “percent reduction in level of 4-hydroxybenzyl isothiocyanate after 24 hours” value [1] was “about 72%”, the “time at which Z. bailii counts reduced to non-detectable level” value (Zygosaccharomyces bailii; 150-200 CFU/gm inoculum, same result with and without 4-hydroxybenzyl isothiocyanate) was 96 h and the “regrowth of Z. bailii up to 336 hours” value (Zygosaccharomyces bailii; 150 ppm) was “no regrowth”. For the same molecule, the “regrowth of Z. bailii up to 336 hours” value (Zygosaccharomyces bailii; 300 ppm) was “no regrowth”, the “time until lactic acid bacteria counts reduced to non-detectable level” value ([2]; ANK ketchup, 150 ppm) was 336 h and the “time until lactic acid bacteria counts reduced to non-detectable level” value ([2]; ANK ketchup, 300 ppm) was no more than 96 h. The “time until lactic acid bacteria counts reduced to non-detectable level” value ([2]; ANK-RS (reduced sodium) ketchup, 150 ppm) was 336 h and the “time until lactic acid bacteria counts reduced to non-detectable level” value ([2]; ANK-RS (reduced sodium) ketchup, 300 ppm) was no more than 168 h.

— patent US8475862B2, “Isothiocyanate preservatives and methods of their use” (The Procter & Gamble Company, priority 2003, dated 2013)
